Laboratory results as given in the SangsterLogP compilation.

SMILES	logP
CCC=C(CCC)C(=O)O	2.44
CCCC(CC(C)=O)C(=O)O (configuration not stated)	1.31
CCC(C)(C)C(=O)O	1.9
CC(C)CCn1cnnn1	1.29
CCCCN(CCCC)C(=O)CCC(=O)O	2.3
CCCC(CCC)C(=O)O	2.57
O=C(O)CC1CCCCC1	2.31
CCC(CC)CC(=O)O	2.19
CC1(C(=O)O)CCCCC1	2.38
CCCCCCCc1nn[nH]n1	2.01
C/C=C/C(=C\CC)C(=O)O	2.27
CCCCC(CCCC)C(=O)O	3.34
